Test results reported in BindingDB's records for patent US20250163061 (Bala Therapeutics, 2025).

biological target: T1, Menin (Homo sapiens, UniProt O00255); test: Primary Assay Used to Determine Potency of MEN1 Activity Inhibition
T1 sequence (O00255 whole entry): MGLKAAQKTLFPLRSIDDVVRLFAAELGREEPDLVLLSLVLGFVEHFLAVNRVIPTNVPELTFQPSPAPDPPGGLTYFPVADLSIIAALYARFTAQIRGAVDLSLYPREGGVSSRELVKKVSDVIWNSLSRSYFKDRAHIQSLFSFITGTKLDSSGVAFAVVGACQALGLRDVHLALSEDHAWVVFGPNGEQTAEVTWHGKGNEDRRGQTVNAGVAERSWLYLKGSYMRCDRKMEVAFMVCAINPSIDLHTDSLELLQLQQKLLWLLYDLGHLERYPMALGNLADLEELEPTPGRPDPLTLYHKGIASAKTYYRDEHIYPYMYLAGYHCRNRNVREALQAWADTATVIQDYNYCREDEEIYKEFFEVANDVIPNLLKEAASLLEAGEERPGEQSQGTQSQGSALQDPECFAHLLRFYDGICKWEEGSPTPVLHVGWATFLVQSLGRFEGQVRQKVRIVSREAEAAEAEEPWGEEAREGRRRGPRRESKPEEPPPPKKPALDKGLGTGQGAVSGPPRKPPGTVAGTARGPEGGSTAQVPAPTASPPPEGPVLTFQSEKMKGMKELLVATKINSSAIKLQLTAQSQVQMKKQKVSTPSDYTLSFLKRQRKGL
Protocol: Compound activity was determined using recombinant MEN1 protein (Creativebiomart, Cat #MEN1-35H) and a custom fluorescein-labeled MLL4-43 peptide (Eton Bioscience Inc.). Interaction between MEN1 and MLL4-43 in the presence of compounds was determined by fluorescence polarization assay using a Microplate Reader ClarioStar Plus. The reaction was carried out in assay buffer (50 mM TRIS-HCl pH 7.4-7.6, 50 mM NaCl, 1 mM DTT, 0.1 mg/ml BSA). The compounds were dispensed on a 384 well Diamond Well Plate (Axigen, Cat #P-384-120SQ-C-S) using the Biomek FX liquid handling system at 100× solutions of compounds in DMSO. 2×MEN1 mix (final concentration of MEN1 10 nM) was prepared in Assay buffer and 10 μl of mixture per well was added into 384 w white Reaction plate with NBS (Corning, Cat #4513). 10 μl of Assay buffer w/o MEN1 was used for negative control. Plates were centrifuged for 1 min at 100 g. Next step the Compounds were added to Reaction plate using Biomek station via following steps: 3 μl of 100× compounds (in DMSO) were mixed thoroughly with 27 μl Assay Buffer, then 2 μl of this mixture was added to Reaction plate with 10 μl of MEN1 mix. Plates were centrifuged for 1 min at 100 g and incubated for 20 min at room temperature. Next 8 μL of MLL4-43 peptide per well was added to final concentration of MLL 0.5 nM. Plates were incubated for 1 hour at room temperature. Then fluorescence polarization was measured using Microplate Reader.

**Q.** For `Cc1c(CN2CCC3(CC2)CN(c2ncnc4ccc(CC(F)(F)F)cc24)C3)ccc2c1cc(C#N)n2CCN1CCOCC1` [US20250163061, Compound 97], which EC50 is on record?
**A.** < 0.075 µM

**Q.** For `Cc1c(CN2CCC3(CC2)CN(c2nncc4ccc(CC(F)(F)F)cc24)C3)ccc2c1cc(C#N)n2CC(C)N1CCN(S(C)(=O)=O)CC1` (stereo not given) [US20250163061, Compound 79], which EC50 is on record?
**A.** > 5 µM

**Q.** Which EC50 does the source give for `Cc1c(CN2CCC3(CC2)CN(c2ncnc4ncc(CC(F)(F)F)nc24)C3)ccc2c1cc(C#N)n2CC(C)N1CCN(S(C)(=O)=O)CC1` (stereo not given) [US20250163061, Compound 42] here?
**A.** < 0.075 µM

**Q.** Which EC50 does the source give for `Cc1c(CN2CCC3(CC2)CN(c2ncnc4ccc(CC(F)(F)F)cc24)C3)ccc2c1cc(C#N)n2CC(C)N1CCN(S(=O)(=O)C(C)C)CC1` (stereo not given) [US20250163061, Compound 64] here?
**A.** < 0.075 µM

**Q.** `Cc1c(CN2CCC3(CC2)CN(c2ncnc4ccc(CC(F)(F)F)cc24)C3)ccc2c1cc(C#N)n2CCN1CCNC1=O` was tested. Which EC50 did it give?
**A.** < 0.075 µM

**Q.** Which EC50 does the source give for `CC(Cn1c(C#N)cc2c(F)c(CN3CCC4(CC3)CN(c3ncnc5ccc(CC(F)(F)F)cc35)C4)ccc21)N1CCN(S(C)(=O)=O)CC1` (stereo not given) [US20250163061, Compound 78] here?
**A.** 0.075 to 0.5 µM

**Q.** For `CNC(=O)NC12CC(Cn3c(C#N)cc4c(C)c(CN5CCC6(CC5)CN(c5ncnc7ccc(CC(F)(F)F)cc57)C6)ccc43)(C1)C2` [US20250163061, Compound 60], which EC50 is on record?
**A.** < 0.075 µM

**Q.** With `Cc1c(CN2CCC3(CC2)CN(c2ncnc4ccc(CC(F)(F)F)cc24)C3)ccc2c1cc(C#N)n2CC12CC(NC=O)(C1)C2` [US20250163061, Compound 95] as the molecule, how does the EC50 read?
**A.** < 0.075 µM

**Q.** For `CCS(=O)(=O)N1CCN([C@@H](C)Cn2c(C#N)cc3c(C)c(CN4CCC5(CC4)CN(c4ncnc6ccc(CC(F)(F)F)cc46)C5)ccc32)C[C@@H]1C` [US20250163061, Compound 26], which EC50 is on record?
**A.** < 0.075 µM

**Q.** Which EC50 does the source give for `CS(=O)(=O)N1CCN(CCn2c(C#N)cc3cc(CN4CCC5(CC4)CN(c4ncnc6ccc(CC(F)(F)F)cc46)C5)ccc32)CC1` [US20250163061, Compound 91] here?
**A.** < 0.075 µM

**Q.** How did the EC50 turn out when `Cc1c(CN2CCC3(CC2)CN(c2nc(=O)[nH]c4ccc(CC(F)(F)F)cc24)C3)ccc2c1cc(C#N)n2C[C@@H]1CNC(=O)CO1` [US20250163061, Compound 105] was run?
**A.** 0.5 to 1 µM

**Q.** With `Cc1c(CN2CCC3(CC2)CN(c2ncnc4ccc(CC(F)(F)F)cc24)C3)ccc2c1cc(C#N)n2CC1CN(C)C(=O)CO1` (stereo not given) [US20250163061, Compound 15] as the molecule, how does the EC50 read?
**A.** < 0.075 µM

**Q.** For `Cc1c(CN2CCC3(CC2)CN(c2ncnc4cnc(CC(F)(F)F)cc24)C3)ccc2c1cc(C#N)n2CC(C)N1CCN(S(C)(=O)=O)CC1` (stereo not given) [US20250163061, Compound 45], which EC50 is on record?
**A.** < 0.075 µM

**Q.** How did the EC50 turn out when `Cc1c(CN2CCC3(CC2)CN(c2ncnc4ccc(CC(F)(F)F)nc24)C3)ccc2c1cc(C#N)n2CC(C)N1CCN(S(C)(=O)=O)CC1` (stereo not given) [US20250163061, Compound 67] was run?
**A.** < 0.075 µM

**Q.** With `CCS(=O)(=O)N1CCN([C@H](C)Cn2c(C#N)cc3c(C)c(CN4CCC5(CC4)CN(c4ncnc6ccc(CC(F)(F)F)cc46)C5)ccc32)C[C@@H]1C` [US20250163061, Compound 25] as the molecule, how does the EC50 read?
**A.** < 0.075 µM

**Q.** For `Cc1c(CN2CCC3(CC2)CN(c2ncnc4ccc(CC(F)(F)F)cc24)C3)ccc2c1cc(C#N)n2CC(C)N1CCCN(S(C)(=O)=O)CC1` (stereo not given) [US20250163061, Compound 29], which EC50 is on record?
**A.** < 0.075 µM

**Q.** For `Cc1c(CN2CCC3(CC2)CN(c2ncnc4ccc(CC(F)(F)F)cc24)C3)ccc2c1cc(C#N)n2[C@H](C)CN1CCN(S(C)(=O)=O)CC1` [US20250163061, Compound 23], which EC50 is on record?
**A.** < 0.075 µM

**Q.** For `CCCCS(=O)(=O)N1CCCN(C(C)Cn2c(C#N)cc3c(C)c(CN4CCC5(CC4)CN(c4ncnc6ccc(CC(F)(F)F)cc46)C5)ccc32)CC1` (stereo not given) [US20250163061, Compound 73], which EC50 is on record?
**A.** < 0.075 µM

**Q.** For `C=CC(=O)N1CCN(CCCn2c(C#N)cc3c(C)c(CN4CCC5(CC4)CN(c4ncnc6ccc(CC(F)(F)F)cc46)C5)ccc32)CC1` [US20250163061, Compound 66], which EC50 is on record?
**A.** < 0.075 µM

**Q.** With `Cc1c(CN2CCC3(CC2)CN(c2ncnc4ncc(CC(F)(F)F)cc24)C3)ccc2c1cc(C#N)n2CC(C)N1CCN(S(C)(=O)=O)CC1` (stereo not given) [US20250163061, Compound 89] as the molecule, how does the EC50 read?
**A.** < 0.075 µM

**Q.** How did the EC50 turn out when `Cc1c(CN2CCC3(CC2)CN(c2ncnc4ccc(CC(F)(F)F)cc24)C3)ccc2c1cc(C#N)n2CC1CNC(=O)NC1` [US20250163061, Compound 4] was run?
**A.** < 0.075 µM

**Q.** `CNc1nc(N2CC3(CCN(Cc4ccc5c(cc(C#N)n5C[C@@H]5CNC(=O)CO5)c4C)CC3)C2)c2cc(CC(F)(F)F)ccc2n1` [US20250163061, Compound 58] was tested. Which EC50 did it give?
**A.** < 0.075 µM

**Q.** How did the EC50 turn out when `Cc1c(CN2CCC3(CC2)CN(c2ncnc4ccc(CC(F)(F)F)c(F)c24)C3)ccc2c1cc(C#N)n2CC1CNC(=O)CO1` (stereo not given) [US20250163061, Compound 12] was run?
**A.** < 0.075 µM

**Q.** How did the EC50 turn out when `N#Cc1cc2cc(CN3CCC4(CC3)CN(c3ncnc5ccc(CC(F)(F)F)cc35)C4)ccc2[nH]1` was run?
**A.** < 0.075 µM

**Q.** For `Cc1c(CN2CCC3(CC2)CN(c2ncnc4ccc(CC(F)(F)F)cc24)C3)ccc2c1cc(C#N)n2CC1CCC(=O)NC1` (stereo not given) [US20250163061, Compound 72], which EC50 is on record?
**A.** < 0.075 µM
